From patent US12486246B2, “Replication protein A (RPA)-DNA interaction inhibitors” (THE TRUSTEES OF INDIANA UNIVERSITY, priority 2019, dated 2025)

Legend:
[1] = target: T1, full length heterotrimeric human RPA (Homo sapiens, UniProt P27694); assay: Electrophoretic mobility shift assay (EMSA), binding of full length human RPA to ssDNA; settings: full length human RPA binding to DNA, mean ± SD of minimum triplicate experiments
T1 construct: Full length, heterotrimeric human RPA (fl-RPA) and DBD-A/B constructs were expressed and purified; made in house
T1 sequence (P27694 whole entry): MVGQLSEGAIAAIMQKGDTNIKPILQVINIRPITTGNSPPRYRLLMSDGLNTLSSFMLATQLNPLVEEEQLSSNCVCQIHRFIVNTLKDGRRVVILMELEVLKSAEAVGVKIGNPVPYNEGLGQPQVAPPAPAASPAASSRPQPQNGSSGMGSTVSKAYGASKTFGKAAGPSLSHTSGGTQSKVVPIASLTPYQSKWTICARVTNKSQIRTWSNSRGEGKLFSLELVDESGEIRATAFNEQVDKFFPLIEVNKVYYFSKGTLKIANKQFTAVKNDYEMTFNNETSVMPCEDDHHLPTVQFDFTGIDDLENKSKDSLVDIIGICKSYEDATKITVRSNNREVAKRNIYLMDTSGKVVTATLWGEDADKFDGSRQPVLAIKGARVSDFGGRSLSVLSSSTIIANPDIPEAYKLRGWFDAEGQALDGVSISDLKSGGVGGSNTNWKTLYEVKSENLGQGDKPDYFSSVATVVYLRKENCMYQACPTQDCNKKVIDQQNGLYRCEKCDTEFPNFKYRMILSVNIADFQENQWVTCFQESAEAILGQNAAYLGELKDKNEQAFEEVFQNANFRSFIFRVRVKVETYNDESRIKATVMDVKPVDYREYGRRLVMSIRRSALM
T1 sequence (P15927 whole entry partner): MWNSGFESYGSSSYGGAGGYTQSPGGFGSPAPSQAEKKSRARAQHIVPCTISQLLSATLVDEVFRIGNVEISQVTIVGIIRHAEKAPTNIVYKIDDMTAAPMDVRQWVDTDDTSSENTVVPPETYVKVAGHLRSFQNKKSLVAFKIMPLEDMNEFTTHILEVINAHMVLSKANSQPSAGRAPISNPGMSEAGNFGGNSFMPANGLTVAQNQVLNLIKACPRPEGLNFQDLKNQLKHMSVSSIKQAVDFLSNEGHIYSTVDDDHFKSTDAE
T1 sequence (P35244 whole entry partner): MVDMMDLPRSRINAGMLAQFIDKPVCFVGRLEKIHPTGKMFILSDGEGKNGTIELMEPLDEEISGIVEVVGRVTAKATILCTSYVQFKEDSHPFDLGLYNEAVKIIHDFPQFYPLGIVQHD
Procedure, shortened: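 Full-length human RPA (50 nM) preincubated 30 min with compound (DMSO ≤5%), then 2.5 nM 5′-32P 34-base ssDNA added for 5 min at room temperature in 20 mM HEPES pH 7.8, 50 mM NaCl. Bound/unbound resolved by 6% native PAGE, phosphorimager quantified; IC50 by non-linear regression.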

[2] = target: T2, RPA-AB construct (RPA70 AB domain) (Homo sapiens, UniProt P27694); assay: Differential scanning fluorimetry (DSF); type: binding
T2 construct: The DBD-A/B construct was expressed as a His6-RPA181-422 fusion protein; His6 (N); made in house; host or cells: E. coli BL21 (DE3)
T2 sequence (P27694 181-422): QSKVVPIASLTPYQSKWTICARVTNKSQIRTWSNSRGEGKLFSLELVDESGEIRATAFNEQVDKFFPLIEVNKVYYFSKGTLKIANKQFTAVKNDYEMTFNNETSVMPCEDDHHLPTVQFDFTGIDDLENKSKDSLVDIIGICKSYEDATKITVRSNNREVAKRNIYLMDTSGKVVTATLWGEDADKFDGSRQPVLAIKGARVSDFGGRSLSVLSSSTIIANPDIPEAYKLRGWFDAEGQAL
Protocol: In order to probe the potential role of DNA intercalation as a mechanism for RPA inhibition, compounds 19, 23, 26, 27, 43 and 45 were analyzed using FID assay along with doxorubicin (Dox) as a positive control. […] In addition, direct binding of 9 derivatives to the target protein was assessed using a differential scan fluorimetry (DSF) assay. This assay assesses the melting profile of a protein at increasing temperatures via fluorescent dye binding. The direct interaction of a small molecule to the target protein can either increase or decrease the melting temperature (Tm) of the target depending on the specific protein and their interactions. […] Heparin sulfate, a known RPA interacting molecule often used in the purification of the protein was used as a control. […] (data not shown). […] (FIG. 1B).
The interaction of compound 43 with RPA-AB constructs was performed by differential scanning fluorimetry using GloMelt™ Dye (Biotum). […] Reactions were run in an ABI 7500 real time PCR machine with temperature increasing from 25° C. to 99° C. at a 2% ramp (˜40 minutes) and fluorescence of the reporter was measured on the SYBR® Green setting. […] Data was uploaded to TSA-CRAFT software and Tm calculated as described by Lee et al. Heparin was employed as a positive control of binding to the AB-box of RPA.

[3] = test system: SKGT-4 EAC cells; assay: Combination index (Chou-Talalay), CCK-8 assay; type: cell-based
Protocol: Cell survival was determined by CCK-8 viability assay and/or clonogenic survival assay in 96 well plates or 24 well plates, respectively and combination index (CI) analysis of drug-drug interactions determined by Chou-Talalay analysis as we have previously described. • 1) CCK-8 metabolic assay: Cells were plated (2500 cells/well) in 96-well plate and allowed to grow for at least 18 hours in at 37° C. in the presence of 5% CO2 before treatment with inhibitor for 48 hours. CCK-8 solution (Dojindo) was added to 10% of the total media volume and after 1-4 hours of incubation absorbance at 450 nm was determined using BioTek® Synergy™ H1 hybrid multi-mode microplate reader • 2) Clonogenic survival assay: Cells were plated in a 24 well (20,000 cells/well) plate, incubated for at least 18 hours and then treated with inhibitor. After 48 hours of treatment, the cells are re-plated in 10 cm dishes (500 cells/dish) and incubated for 8-10 days to allow colony formation. Plates are washed with PBS, fixed with glutaraldehyde and stained with crystal violet. Images of the stained colonies were captured with a Fuji LAS-3000 CCD system then counted using OpenCFU software. Viability is determined as a percent of vehicle controls and plotted versus drug concentration. • 3) Assessment of synergy via combination index (CI): In the combination index studies, cells (H460 or SKGT4) were treated with RPA inhibitor and Pt/etoposide/bleomycin/taxol/DDR inhibitor alone as well as the combination of both—the inhibitor and the DNA damaging chemotherapeutic agent/DDR inhibitor. The range of treatment was dependent on the IC50 of each inhibitor/drug. If the IC50 was X, then the cells were treated at a range of 0.04× to 5× concentration in a CCK-8 metabolic assay. The kill curves from both the single agent treatments as well as the combination treatment were used in a Chou-Talalay based method to determine the combination index (CI) at different fractions of cells affected.^40 A CI>1.0 indicates antagonism between the two agents, while a CI<1.0 indicates synergy.
Inhibiting RPA can act synergistically with DNA damaging therapeutics including cisplatin and etoposide (FIG. 4C). In these studies, we used the Chou-Talalay method, which provides a combination index (CI) that quantifies synergistic activity for each drug combination. […] The synergistic activity of compounds described herein with DNA damaging agents may be explained by RPA's role in the DNA damage response and signaling.

## CCOc1ccc2cc(C3CC(c4ccc(I)cc4)=NN3C(=O)CCCC(=O)NCCCN3CCOCC3)c(Cl)nc2c1 (stereo not shown) [Compound 43, 5-(5-(2-Chloro-7-ethoxyquinolin-3-yl)-3-(4-iodophenyl)-4,5-dihydro-1H-pyrazol-1-yl)-N-(3-morpholinopropyl)-5-oxopentanamide]
[1]
  IC50: 4.99 ± 0.28 µM
[2]
  increase in Tm: 0.6 °C
[3]; EAC cell model, BMN637, NU7441, VE821, MK1775
  synergy with PARP, DNA-PK, ATR and WEE1 inhibitors: effectively synergizes
[3]; SKGT-4 EAC cells, Chou-Talalay
  combination interaction with taxol: additive interaction
